Experimental data reported in the supplement of paper PMC10702517.
± gives the standard deviation.

How the values were obtained:
[1] = chemical recovery by SPE of plasma after PDMS sampling; higher = better extraction; conditions: pooled human plasma, extraction method: HLB SPE of plasma after PES
[2] = chemical recovery into PDMS from spiked human plasma; higher = better extraction; conditions: pooled human plasma, extraction method: PES with PDMS
[3] = chemical recovery from spiked human plasma; higher = better extraction; conditions: pooled human plasma
[4] = extraction method: PES+SPE (3 d PDMS equilibration then HLB SPE)
[5] = extraction method: SPE only (HLB 96-well)
[6] = extraction method: SPE only (HLB 96-well), PES comparison experiment
[7] = extraction method: solvent precipitation (ACN + hexane)
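For chemical recovery by SPE of plasma after PDMS sampling in this document: over 400 spiked chemicals quantified by LC-HRMS or GC-HRMS via internal standard calibration, recovery relative to spike mix added to unspiked plasma extract to correct matrix effects.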

chemical recovery into PDMS ([2]; equilibration time (d): 1) [%]	Structure (SMILES)	chemical recovery by SPE of plasma ([1]; equilibration time (d): 1) [%]	chemical recovery by SPE of plasma ([1]; equilibration time (d): 3) [%]	chemical recovery by SPE of plasma ([1]; equilibration time (d): 6) [%]	chemical recovery into PDMS ([2]; equilibration time (d): 3) [%]	chemical recovery into PDMS ([2]; equilibration time (d): 6) [%]	chemical recovery [3, 4] [%]	chemical recovery [3, 5] [%]	chemical recovery [3, 6] [%]	chemical recovery [3, 7] [%]
11.4 ± 0.43	O=c1c2ccccc2[nH]c2ccccc12 [Acridone]	57.8 ± 8.4	55.6 ± 1.6	44.9 ± 4.3	19.2 ± 3.2	21.8 ± 3.6	62.8 ± 6	47.2 ± 3.6	50.5 ± 5	71.9 ± 1.1
35.6 ± 2.6	CC(=O)OCC(=O)[C@@]12OC3(CCCC3)O[C@@H]1C[C@H]1[C@@H]3CCC4=CC(=O)C=C[C@]4(C)[C@@]3(F)[C@@H](O)C[C@@]12C [Amcinonide]	1.91 ± 3.3	1.48 ± 2.6	–	38.1 ± 2.4	35.6 ± 2.7	–	–	39.5 ± 7.4	–
0.0444 ± 0.019	CCCCc1oc2ccccc2c1C(=O)c1cc(I)c(OCCN(CC)CC)c(I)c1 [Amiodarone]	0.357 ± 0.17	0.127 ± 0.05	–	0.131 ± 0.037	0.0473 ± 0.062	–	37.9 ± 13	–	106 ± 22
0.00525 ± 0.0045	CN(C)CCC=C1c2ccccc2CCc2ccccc21 [Amitriptyline]	0.152 ± 0.26	0.14 ± 0.12	0.0767 ± 0.067	0.0228 ± 0.034	–	0.236 ± 0.082	39.4 ± 10	44.1 ± 5.6	77.5 ± 5.1
34.8 ± 2.8	CC(C)(C#N)c1cc(Cn2cncn2)cc(C(C)(C)C#N)c1 [Anastrozole]	14.8 ± 1.9	9.48 ± 1.3	4.8 ± 0.57	39.8 ± 1.5	41.8 ± 2.5	51.4 ± 5.5	44.4 ± 1.8	47.9 ± 3.9	69.1 ± 2.4
0.00383 ± 0.0066	CN1CCCC(n2nc(Cc3ccc(Cl)cc3)c3ccccc3c2=O)CC1 (centres undefined) [Azelastine]	1.03 ± 0.14	1.27 ± 0.31	0.461 ± 0.41	–	0.00617 ± 0.0099	–	–	43.9 ± 6	64.8 ± 3.2
–	CO/C=C(/C(=O)O)c1ccccc1Oc1cc(Oc2ccccc2C#N)ncn1 [Azoxystrobin acid]	46.8 ± 4.8	50.4 ± 2	45.9 ± 2.3	0.00158 ± 0.0027	–	–	–	51.7 ± 3.9	76.6 ± 5.2
–	Brc1ccc(Oc2cc(Br)c(Br)cc2Br)c(Br)c1 [BDE99]	1.13 ± 1.1	–	–	99.1 ± 13	92.4 ± 7.2	53.9 ± 4.6	1.63 ± 0.65	–	4.89 ± 0.2
–	Brc1ccc(Oc2c(Br)cc(Br)cc2Br)c(Br)c1 [BDE100]	2.2 ± 2	1.42 ± 0.25	0.324 ± 0.56	99.1 ± 13	95.9 ± 6	67.4 ± 0.92	3.57 ± 1.4	–	7.72 ± 0.68
–	Brc1cc(Br)c(Oc2cc(Br)c(Br)cc2Br)cc1Br [BDE153]	2.71 ± 2.5	2.62 ± 0.49	1 ± 0.88	68.9 ± 6.3	71.7 ± 9.9	–	6.21 ± 3.4	–	44.6 ± 2.3
–	Brc1cc(Br)c(Oc2cc(Br)c(Br)cc2Br)c(Br)c1 [BDE154]	1.62 ± 1.4	1.94 ± 0.88	–	67.2 ± 9.8	66.7 ± 20	–	–	–	28.8 ± 2.3
0.00847 ± 0.015	O=S(=O)(O)c1ccccc1 [Benzenesulfonic acid]	3.18 ± 3.5	1.77 ± 0.98	2.93 ± 1.1	–	–	1.83 ± 0.28	2.56 ± 1.3	8.52 ± 6	80.7 ± 8.4
–	c1ccc2c(c1)-c1cccc3c1c-2cc1ccccc13 [Benzo(b)fluoranthene]	–	3.78 ± 9.3	–	93.1 ± 4.8	93.6 ± 18	–	0.807 ± 0.61	–	36 ± 1.5
–	c1ccc2c(c1)Cc1cc3ccccc3cc1-2 [Benzo(b)fluorene]	1.71 ± 1.6	2.82 ± 0.45	2.41 ± 0.48	107 ± 3.9	110 ± 13	57.9 ± 6.2	1.4 ± 0.48	17.5 ± 3.4	69.1 ± 5.1
23.5 ± 1.9	CCOC(=O)c1ccc(N)cc1 [Benzocain]	14.6 ± 2.6	18.4 ± 1.5	14.4 ± 2.3	23.3 ± 1.7	26.3 ± 2.2	32.9 ± 5.6	39.3 ± 3.4	–	64.9 ± 4.3
35.5 ± 1.5	COc1ccc(C(=O)c2ccccc2)c(O)c1 [Benzophenone-3]	1.5 ± 0.48	1.88 ± 0.31	1.41 ± 0.17	38.2 ± 2.1	38.6 ± 4.5	41.3 ± 8.9	28.9 ± 1.7	33.1 ± 5.5	65 ± 3.6
12.9 ± 1.3	CCCCC(=O)O[C@]1(C(=O)CO)[C@@H](C)C[C@H]2[C@@H]3CCC4=CC(=O)C=C[C@]4(C)[C@@]3(F)[C@@H](O)C[C@@]21C [Betamethasone-17-valerate]	–	26.8 ± 4.2	19.1 ± 4.2	18.8 ± 1.3	20.1 ± 1.2	–	–	41.7 ± 7.8	–

Structure (SMILES)	chemical recovery into PDMS ([2]; equilibration time (d): 1) [%]	chemical recovery by SPE of plasma ([1]; equilibration time (d): 1) [%]	chemical recovery by SPE of plasma ([1]; equilibration time (d): 3) [%]	chemical recovery by SPE of plasma ([1]; equilibration time (d): 6) [%]	chemical recovery into PDMS ([2]; equilibration time (d): 3) [%]	chemical recovery into PDMS ([2]; equilibration time (d): 6) [%]	chemical recovery [3, 4] [%]	chemical recovery [3, 5] [%]	chemical recovery [3, 6] [%]	chemical recovery [3, 7] [%]
C/C(=N\C#N)N(C)Cc1ccc(Cl)nc1 [Acetamiprid]	9.86 ± 0.62	46.9 ± 3.9	42.3 ± 4.8	33.6 ± 4	15.7 ± 2.8	17.2 ± 2.9	51.9 ± 4.8	40.7 ± 3	56.8 ± 6.8	75 ± 2.6
ClC1=C(Cl)C2(Cl)C3C4C=CC(C4)C3C1(Cl)C2(Cl)Cl (centres undefined) [Aldrin]	84.1 ± 2.4	1.3 ± 0.86	1.34 ± 0.14	1.4 ± 0.28	90.4 ± 12	99.8 ± 12	–	1.53 ± 0.48	18.4 ± 4	–
C=CCC1=C(C)C(OC(=O)C2C(C=C(C)C)C2(C)C)CC1=O (centres undefined) [Allethrin]	36 ± 1.6	–	0.042 ± 0.073	–	38.6 ± 3.5	37.9 ± 1.6	–	–	34.6 ± 6.6	–
CCNc1nc(NC(C)C)nc(SC)n1 [Ametryn]	13.2 ± 4.9	24.3 ± 4.5	9.36 ± 2	4.74 ± 0.84	20.6 ± 7.4	23.9 ± 3.2	–	41.6 ± 3.1	44.1 ± 4.6	72.1 ± 3.1
Nc1ccc(/N=N/c2ccccc2)cc1 [Aniline Yellow]	12.3 ± 4.1	6.65 ± 1.6	7.55 ± 0.93	5.19 ± 0.91	10.4 ± 4.8	11.3 ± 3	–	–	28.9 ± 4.3	–
CCNc1nc(Cl)nc(NC(C)C)n1 [Atrazine]	34.5 ± 1.7	6.06 ± 0.65	4.12 ± 0.74	2.39 ± 0.2	39.1 ± 2.9	39.4 ± 0.96	43.7 ± 5.2	41.5 ± 2.1	50.6 ± 6.8	62.9 ± 5.5
c1ccc(/N=N/c2ccccc2)cc1 [Azobenzene]	26.2 ± 3.9	0.184 ± 0.32	0.401 ± 0.35	0.284 ± 0.25	28.4 ± 5.6	27.9 ± 4	–	–	8.55 ± 2.6	–
CO/C=C(/C(=O)OC)c1ccccc1Oc1cc(Oc2ccccc2C#N)ncn1 [Azoxystrobin]	40.1 ± 1.9	5.12 ± 0.84	3.88 ± 0.44	2.15 ± 0.22	43.9 ± 3.2	43 ± 0.52	46.6 ± 5.9	46.7 ± 1.1	51.9 ± 7.1	75.6 ± 3.4
CNC(=O)Oc1cccc2c1OC(C)(C)O2 [Bendiocarb]	25.2 ± 0.81	20.4 ± 0.99	26.5 ± 2.1	21.6 ± 1.7	20.4 ± 0.2	21.4 ± 0.87	35.9 ± 5.4	45.8 ± 1.5	45.4 ± 4.6	0.0898 ± 0.13
